From patent US12433868B2 (priority 2010, dated 2025)

How the values were obtained:
Vaccinia virus (NYCBH) = test: microbe, parasite or virus in culture; assay type: cell-based; settings: Orthopoxvirus vaccinia, Vero
Pichinde virus = assay type: cell-based
[1] = system: Rift Valley fever virus (strain MP12); assay type: cell-based
[2] = system: respiratory syncytial virus; assay type: cell-based
cytomegalovirus = assay type: cell-based
Zaire 79 strain of MPX = system: Zaire 79 strain of MPX; parameters: species or system cynomolgus monkeys (Macaca fascicularis); settings: cynomolgus monkey, in vivo
[3] = both, human, in vivo, po, 400 mg
clinical = settings: both, human, in vivo, po, 400 mg
vaccinia virus (VV) = settings: read-out: 50% effective concentration [EC50], inhibition of virus replication, in vitro; cited from earlier work
cowpox virus (CV) = settings: read-out: 50% effective concentration [EC50], inhibition of virus replication, in vitro; cited from earlier work
ectromelia virus (ECTV) = settings: read-out: 50% effective concentration [EC50], inhibition of virus replication; cited from earlier work
monkeypox = settings: read-out: 50% effective concentration [EC50], inhibition of virus replication, in vitro; cited from earlier work
camelpox = settings: read-out: 50% effective concentration [EC50], inhibition of virus replication; cited from earlier work
variola viruses = settings: read-out: 50% effective concentration [EC50], inhibition of virus replication, in vitro; cited from earlier work
VV = settings: orally twice a day at 15 or 50 mg/kg of body weight for 5 days; intravenous VV; cited from earlier work
ECTV, VV, or CV = settings: mouse, in vivo; cited from earlier work

Structure (SMILES): O=C(NN1C(=O)C2C3C=CC(C4CC34)C2C1=O)c1ccc(C(F)(F)F)cc1 (single isomer, unassigned) [Form I, 4-trifluoromethyl-N-(3,3a,4,4a,5,5a,6,6a-octahydro-1,3-dioxo-4,6-ethenocycloprop[f]isoindol-2(1H)-yl)-benzamide]
- inhibition at 5 µM (Vaccinia virus (NYCBH); 72 h, read-out: inhibition of vaccinia virus-induced CPE): > 50%
- EC50 (Vaccinia virus (NYCBH); read-out: EC50 in the CPE assay): 50 nM
- inhibition of replication of unrelated virus (Pichinde virus): do not inhibit
- inhibition of replication of unrelated virus [1]: do not inhibit
- inhibition of replication of unrelated virus [2]: do not inhibit
- inhibition of replication of unrelated virus (cytomegalovirus): do not inhibit
- amount of viral DNA compared to vehicle-treated animals (Zaire 79 strain of MPX): significantly decrease
- reduction in the level of virus replication compared to vehicle-treated group (Zaire 79 strain of MPX): more than 1,000 fold
- survival (Zaire 79 strain of MPX): survive
- AUC0-τ, Mean [3]: 15624.5 ng·h/mL
- AUC0-∞, Mean [3]: 19922.02 ng·h/mL
- Cmax, Mean [3]: 1068.9 ng/mL
- Tmax, Mean [3]: 3.8 h
- t1/2, Mean [3]: 27.446 h
- Cmax (clinical; Median): 1170 ng/mL
- Tmax (clinical; Median): 3.5 h
- half-life (clinical; t1/2, Median): 1510 min

Structure (SMILES): O=C(NN1C(=O)C2C3C=CC(C4CC34)C2C1=O)c1ccc(C(F)(F)F)cc1 (single isomer, unassigned) [Form V, 4-trifluoromethyl-N-(3,3a,4,4a,5,5a,6,6a-octahydro-1,3-dioxo-4,6-ethenocycloprop[f]isoindol-2(1H)-yl)-benzamide]
- Cmax, Median [3]: 1180 ng/mL
- Tmax, Median [3]: 4 h
- t1/2, Median [3]: 16.647 h
- AUC (clinical; AUC0-τ, Mean): 20100 ng·h/mL
- AUC(0-inf) (clinical; AUC0-∞, Mean): 22000 ng·h/mL
- Cmax (clinical; Mean): 1230 ng/mL
- Tmax (clinical; Mean): 3.8 h
- half-life (clinical; t1/2, Mean): 1750 min

Structure (SMILES): O=C(NN1C(=O)C2C3C=CC(C4CC34)C2C1=O)c1ccc(C(F)(F)F)cc1 (stereo not shown) [ST-246, 4-trifluoromethyl-N-(3,3a,4,4a,5,5a,6,6a-octahydro-1,3-dioxo-4,6-ethenocycloprop[f]isoindol-2(1H)-yl)-benzamide]
- EC50 (vaccinia virus (VV)): ≤ 70 nM
- EC50 (cowpox virus (CV)): ≤ 70 nM
- EC50 (ectromelia virus (ECTV)): ≤ 70 nM
- EC50 (monkeypox): ≤ 70 nM
- EC50 (camelpox): ≤ 70 nM
- EC50 (variola viruses): ≤ 70 nM
- tail lesions (VV): significantly reduced
- preventing or reducing mortality (ECTV, VV, or CV): highly effective in preventing or reducing mortality
- toxicity in animal models (ECTV, VV, or CV): nontoxic
